# Assay results reported in patent US20080057529A1, “Method for Identifying Histone Deacetylase Inhibitors” (priority 2003, published 2008).
# Like-named read-outs stand apart in the source and are kept apart here.
# Assays:
# Format in all cases: cell-based, human
# p21 minimal promoter = assay: Fluorometric β-lactamase activity assay in stable HeLa clone 1.17 (p21m-BLA); conditions: read-out: p21m-Bla EC50
# Experimental: All clones were screened for the presence of stably and functional integrated copies of the p21m-BLA reporter gene transcription cassette by performing a fluorometric β-lactamase activity assay after treatment with the HDAC inhibitor Apicidin at a concentration of 1 μM (saturating dose representing 100% of Bla gene activation, i.e., 100% of HDAC inhibition). A 100 μL aliquot of cells for each stable transformant in complete DMEM was plated into a well of a 96 well plate at about 36,000 cells per well for treatment with 1 μM Apicidin (saturating dose) and a 100 μL aliquot of cells was plated into a well of a 96 well plate at 24,000 cells per well for treatment with DMSO (vehicle control). […] After 4 hours, 25 μL of complete DMEM containing Apicidin at 5× final concentration or DMSO (5%) was added to each of the wells. The cells were then grown at 37° C., 5% CO2 for about 12 to 16 hours. Afterwards, the medium was removed and 100 μL of DMEM without serum and 25 μL of FRET labeled CCF2-AM Bla substrate diluted in the appropriate buffer according to the manufacturer recommendations were each added to the cells to give a final concentration of 1 μM CCF2-AM.
# endogenous p21 = assay: Induction of endogenous p21 in HeLa cells, immunoblot; conditions: 13 hour treatment, immunoblot densitometry, read-out: Endogenous p2 EC50
# Experimental: (§1) Induction of endogenous p21 and acetylation of core histones (inhibition of HDAC activity) was as follows. Dose-response experiments were performed in HeLa cells with different classes of known HDAC inhibitors. […] An α-tubulin-specific antibody (Sigma, St. Louis, Mo.; catalog number: T9026) was used as an internal standard. Quantitative data were obtained by densitometric analysis of X-ray films and were normalized for the internal standard values.
# [1] = test system: HDAC activity (acetylated histone H3); assay: Acetylation of core histones (inhibition of HDAC activity) in HeLa cells, acetylated histone H3 immunoblot; conditions: Homo sapiens; HeLa cells, 13 hour treatment, immunoblot densitometry; read-out: AcH3 EC50
# Experimental: as §1
structure (smiles),measurement,setting,value
Nc1ccccc1NC(=O)c1ccc(CNC(=O)OCc2cccnc2)cc1 [MS27-275],EC50,"p21 minimal promoter; clone 1.17, about 13 hours treatment, means of 3 to 4 independent experiments",12 µM
same,EC50,endogenous p21,22 µM
"CCCC(=O)[O-].[Na+] [Na-butyrate, sodium butyrate]",EC50,"p21 minimal promoter; Homo sapiens, HeLa, 13 h",2000 µM
"O=C(CCCCCCC(=O)Nc1ccccc1)NO [SAHA, suberoylanilide hydroxamic acid]",EC50,[1],0.8 µM
